In patent US8258160B2, “SCD1 inhibitors triazole and tetrazole compounds” (Novartis AG, priority 2006, dated 2012):
pIC50: −log10 of the molar value.

Legend:
[1] = target: T1, stearoyl-CoA desaturase (SCD1) (Mus musculus, UniProt P13516); experiment: SCD microsomal assay: release of 3H2O from [9,10-3H]stearoyl-CoA in mouse liver microsomes; format: biochemical; conditions: 15 min incubation, 25° C.
T1 construct: Reactions are started by adding 50 μL of microsomes (1.25 mg/mL); from tissue; host or cells: liver microsomes of male ICR outbred mice on a high-carbohydrate, low-fat diet
T1 sequence (P13516 1-355): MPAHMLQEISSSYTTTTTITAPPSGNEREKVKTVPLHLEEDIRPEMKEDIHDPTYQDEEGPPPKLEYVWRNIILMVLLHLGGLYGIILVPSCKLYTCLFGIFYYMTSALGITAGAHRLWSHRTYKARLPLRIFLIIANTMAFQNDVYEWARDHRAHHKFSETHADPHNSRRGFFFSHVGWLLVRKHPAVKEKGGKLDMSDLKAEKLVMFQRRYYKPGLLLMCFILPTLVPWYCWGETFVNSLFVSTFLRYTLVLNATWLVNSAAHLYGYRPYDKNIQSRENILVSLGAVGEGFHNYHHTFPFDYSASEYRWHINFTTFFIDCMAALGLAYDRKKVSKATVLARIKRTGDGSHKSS
Text: The identification of compounds of the invention as SCD inhibitors was readily accomplished using the SCD enzyme and microsomal assay procedure described in Shanklin J. and Summerville C., Proc. Natl. Acad. Sci. USA (1991), Vol. 88, pp. 2510-2514.
The identification of compounds of the invention as SCD inhibitors was readily accomplished using the SCD microsomal assay procedure described in Shanklin J. and Summerville C., Proc. Natl. Acad. Sci. USA (1991), Vol. 88, pp. 2510-2514.
Male ICR outbread mice, on a high-carbohydrate, low fat diet, under light halothane (15% in mineral oil) anesthesia are sacrificed by exsanguination during periods of high enzyme activity. Livers are immediately rinsed with cold 0.9% NaCl solution, weighed and minced with scissors. All procedures are performed at 4° C. unless specified otherwise. Livers are homogenized in a solution (1/3 w/v) containing 0.25 M sucrose, 62 mM potassium phosphate buffer (pH 7.0), 0.15 M KCl, 15 mM N-acetylcysteine, 5 mM MgCl2, and 0.1 mM EDTA using 4 strokes of a Potter-Elvehjem tissue homogenizer. The homogenate is centrifuged at 10,400×g for 20 min to eliminate mitochondria and cellular debris. The supernatant is filtered through a 3-layer cheesecloth and centrifuged at 105,000×g for 60 min. The microsomal pellet is gently resuspended in the same homogenization solution with a small glass/teflon homogenizer and stored at −70° C. The absence of mitochondrial contamination is enzymatically assessed. The protein concentration is measured using bovine serum albumin as the standard.
Desaturase activity is measured as the release of ^3H2O from [9,10-^3H]stearoyl-CoA. Reactions per assay point conditions are as follows: 2 μL 1.5 mM stearoyl-CoA, 0.25 μL 1 mCi/mL ^3H stearoyl CoA, 10 μL 20 mM NADH, 36.75 μL 0.1 M PK buffer (K2HPO4/NaH2PO4, pH 7.2). The test compound or control solution is added in a 1 μL volume. Reactions are started by adding 50 μL of microsomes (1.25 mg/mL). The plates are mixed and after 15 min incubation on a heating block (25° C.), the reactions are stopped by the addition of 10 μL 60% PCA. An aliquot of 100 μL is then transferred to a filter plate pretreated with charcoal and the plate centrifuged at 4000 rpm for 1 min. The flow through containing the ^3H2O released by the SCD1 desaturation reaction is added to scintillation fluid and the radioactivity measured in a Packard TopCount. The data is analysed to identify the IC50 for test compounds and reference compounds. […] The activity was defined in terms of % SCD enzyme activity remaining at the desired concentration of the test compound or as the IC50 concentration. The IC50 (affinity) of the example compounds toward the stearoyl-CoA desaturase is comprised between around 20 μM and 0.0001 μM or between around 5 μM and 0.0001 μM or between around 1 μM and 0.0001 μM.

pIC50 [1]	melting point	SMILES
7.22	139 to 141 °C	Cc1nc(-n2cc(Cc3ccccc3)nn2)sc1C(=O)NCc1ccccc1 [Example 10.1, N-benzyl-2-(4-benzyl-1H-1,2,3-triazol-1-yl)-4-methylthiazole-5-carboxamide]
6.29	148 to 149 °C	Cc1nc(-c2nnn(Cc3ccc(F)cc3)n2)sc1C(=O)NCc1cccnc1 (single isomer, unassigned) [Example 7.1, 2-(2-(4-Fluorobenzyl)-2H-tetrazol-5-yl)-4-methyl-N-(pyridin-3-ylmethyl)thiazole-5-carboxamide]
8.00	198 to 201 °C	Cc1nc(-n2cc(C(=O)NCc3ccc(F)cc3)nn2)sc1C(=O)NCc1ccccc1 [Example 18.1, N-benzyl-2-(4-(4-fluorobenzylcarbamoyl)-1H-1,2,3-triazol-1-yl)-4-methylthiazole-5-carboxamide]
6.51	149 to 150 °C	Cc1nc(-c2nnn(CC3CC3)n2)sc1C(=O)NCc1cccnc1 (single isomer, unassigned) [Example 7.3, 2-(2-(Cyclopropylmethyl)-2H-tetrazol-5-yl)-4-methyl-N-(pyridin-3-ylmethyl)thiazole-5-carboxamide]

Continued, molecule first:

SMILES	pIC50 [1]	melting point
Cc1nc(-c2cc(Cc3ccccc3)no2)sc1C(=O)NCc1ccccc1 [Example 27, N-benzyl-2-(3-benzylisoxazol-5-yl)-4-methylthiazole-5-carboxamide]	6.22	103 to 104 °C
Cc1nc(-c2cn(CCc3ccc(F)cc3)nn2)sc1C(=O)NCc1ccccc1 [Example 1, N-benzyl-2-(1-(4-fluorophenethyl)-1H-1,2,3-triazol-4-yl)-4-methylthiazole-5-carboxamide]	7.70	181 to 182 °C
Cc1nc(-c2cn(CCc3ccc(F)cc3)nn2)sc1C(=O)NCc1cccnc1 [Example 4.3, 2-(1-(4-fluorophenethyl)-1H-1,2,3-triazol-4-yl)-4-methyl-N-(pyridin-3-ylmethyl)thiazole-5-carboxamide]	6.92	149 to 150 °C
Cc1cc(-c2n[nH]c(Cc3ccccc3)n2)sc1C(=O)NCc1cccnc1 [Example 26, 5-(5-benzyl-1H-1,2,4-triazol-3-yl)-3-methyl-N-(pyridin-3-ylmethyl)thiophene-2-carboxamide]	6.52	82 °C (dec.)
Cc1nc(-c2nnnn2Cc2ccc(C(F)(F)F)cc2)sc1C(=O)NCc1cccnc1 (single isomer, unassigned) [Example 7.2, 4-Methyl-N-(pyridin-3-ylmethyl)-2-(1-(4-(trifluoromethyl)benzyl)-1H-tetrazol-5-yl)thiazole-5-carboxamide]	6.80	175 to 176 °C
Cc1nc(-c2cn(Cc3ccccc3)nn2)sc1C(=O)NCc1ccccc1 [Example 1.1, N-benzyl-2-(1-benzyl-1H-1,2,3-triazol-4-yl)-4-methylthiazole-5-carboxamide]	7.52	108 to 109 °C
Cc1nc(-n2cc(CCC3CCCCC3)nn2)sc1C(=O)NCc1ccccc1 [Example 10.14, N-benzyl-2-(4-(2-cyclohexylethyl)-1H-1,2,3-triazol-1-yl)-4-methylthiazole-5-carboxamide]	6.62	82 to 84 °C
